In series [1] the test system is rats. The conditions noted are these: rat, in vivo; cited from earlier work.
For series [2], the system named is rats. As to conditions: rat, in vivo, 0.1 mg/kg; cited from earlier work.
For series [3], the target named is NaV1.7 (Homo sapiens, UniProt Q15858). As to conditions: read-out: EC50, impairs fast inactivation; cited from earlier work.
Series [4] has as its target T1, hNav1.7 (Homo sapiens, UniProt Q15858). The experiment in a line: cell-based. As to conditions: ratio of IonWorks Quattro IC50 values, Nav1.4 over Nav1.7.
The target of series [5] is T1, hNav1.7. The series can be described thus: cell-based. The series is classed as cell-based. As to conditions: Table 15; read-out: PX hNav1.7 Tonic IC50.
In another series the target is hNav1.4 (Homo sapiens, UniProt P35499). The series can be described thus: cell-based. The format is cell-based. As to conditions: PX.
The target in a further series is hNav1.6 (Homo sapiens, UniProt Q9UQD0). The experiment in a line: cell-based. The series is classed as cell-based.
hNav1.6, sequence (Q9UQD0 whole entry): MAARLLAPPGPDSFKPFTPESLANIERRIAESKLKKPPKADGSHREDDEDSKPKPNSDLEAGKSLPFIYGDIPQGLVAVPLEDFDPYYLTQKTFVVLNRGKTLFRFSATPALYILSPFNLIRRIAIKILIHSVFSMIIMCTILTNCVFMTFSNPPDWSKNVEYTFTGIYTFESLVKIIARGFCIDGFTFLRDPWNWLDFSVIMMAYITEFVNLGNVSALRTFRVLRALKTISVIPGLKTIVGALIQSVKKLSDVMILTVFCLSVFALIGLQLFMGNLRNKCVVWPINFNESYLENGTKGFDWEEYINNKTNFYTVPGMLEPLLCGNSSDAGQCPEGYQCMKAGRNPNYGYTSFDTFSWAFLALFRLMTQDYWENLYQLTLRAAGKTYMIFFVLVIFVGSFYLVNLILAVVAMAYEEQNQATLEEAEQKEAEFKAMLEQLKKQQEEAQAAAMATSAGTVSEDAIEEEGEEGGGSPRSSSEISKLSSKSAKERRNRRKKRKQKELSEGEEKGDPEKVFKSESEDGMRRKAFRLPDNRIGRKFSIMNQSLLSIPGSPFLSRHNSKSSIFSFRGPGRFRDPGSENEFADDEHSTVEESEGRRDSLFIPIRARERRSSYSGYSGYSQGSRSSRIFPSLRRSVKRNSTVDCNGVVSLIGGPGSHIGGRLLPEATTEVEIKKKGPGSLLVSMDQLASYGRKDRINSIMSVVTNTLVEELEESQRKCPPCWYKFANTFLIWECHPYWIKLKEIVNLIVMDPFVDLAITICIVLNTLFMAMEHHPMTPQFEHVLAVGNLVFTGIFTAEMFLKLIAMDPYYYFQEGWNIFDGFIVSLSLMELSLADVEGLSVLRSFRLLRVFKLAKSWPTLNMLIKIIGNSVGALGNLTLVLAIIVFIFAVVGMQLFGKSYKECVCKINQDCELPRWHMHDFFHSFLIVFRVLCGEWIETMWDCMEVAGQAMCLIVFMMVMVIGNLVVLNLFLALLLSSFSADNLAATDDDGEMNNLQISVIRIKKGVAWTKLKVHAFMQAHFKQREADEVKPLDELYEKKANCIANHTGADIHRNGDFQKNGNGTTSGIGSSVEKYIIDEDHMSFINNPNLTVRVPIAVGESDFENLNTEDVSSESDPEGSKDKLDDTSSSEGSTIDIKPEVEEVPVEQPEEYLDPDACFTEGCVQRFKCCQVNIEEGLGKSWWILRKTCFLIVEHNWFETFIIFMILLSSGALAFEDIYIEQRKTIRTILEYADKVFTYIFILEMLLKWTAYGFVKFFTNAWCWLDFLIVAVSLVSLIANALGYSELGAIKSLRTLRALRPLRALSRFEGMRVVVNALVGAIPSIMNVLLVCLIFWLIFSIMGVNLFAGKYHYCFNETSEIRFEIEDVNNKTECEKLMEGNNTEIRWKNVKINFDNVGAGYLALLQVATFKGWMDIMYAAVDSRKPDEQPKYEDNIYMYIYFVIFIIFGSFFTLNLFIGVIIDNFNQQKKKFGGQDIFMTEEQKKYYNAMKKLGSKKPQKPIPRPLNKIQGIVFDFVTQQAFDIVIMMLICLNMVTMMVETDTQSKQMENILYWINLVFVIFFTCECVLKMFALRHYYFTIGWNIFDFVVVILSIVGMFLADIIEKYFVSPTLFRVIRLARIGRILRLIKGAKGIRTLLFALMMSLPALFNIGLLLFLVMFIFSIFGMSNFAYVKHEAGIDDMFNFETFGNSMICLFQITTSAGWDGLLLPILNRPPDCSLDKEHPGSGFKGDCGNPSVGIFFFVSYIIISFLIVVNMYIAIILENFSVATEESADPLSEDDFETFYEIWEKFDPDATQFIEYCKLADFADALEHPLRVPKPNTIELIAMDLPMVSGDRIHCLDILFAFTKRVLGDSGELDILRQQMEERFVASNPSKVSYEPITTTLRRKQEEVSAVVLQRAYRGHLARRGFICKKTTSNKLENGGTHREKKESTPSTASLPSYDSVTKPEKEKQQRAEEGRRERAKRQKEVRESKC
The target of series [6] is T1, hNav1.7. The series can be described thus: cell-based. The format is cell-based.
The subject of series [7] is TTX-sensitive Nav channels in mouse DRG neuron.
Series [8] relates to TTX-sensitive Nav channels in Sprague Dawley rat DRG neuron.
For series [9] the following is noted: human plasma, 37° C., incubation 0 hr (normalisation point).
For series [10] the following is noted: cyno plasma, 37° C., incubation 0 hr (normalisation point).
The conditions of series [11]: mouse plasma, 37° C., incubation 0 hr (normalisation point).
For series [12] the following is noted: 1 mg/kg s.c.
Series [13] relates to male CD-1 mice.
Series [14] deals with male CD-1 mice. The conditions noted are these: 5.0 mg/kg s.c.
Series [15] relates to male CD-1 mice. The conditions noted are these: for terminal exposure (peptide plasma concentration): 2 h post peptide injection.
Series [16] has as its system male Sprague-Dawley rats. As to conditions: 5.0 mg/kg s.c.
Series [17] has as its system male Sprague-Dawley rats. The conditions noted are these: 5.0 mg/kg s.c.; 2 h post peptide injection.
Series [18] can be described thus: in vivo. The conditions noted are these: male, CD-1, mouse, sc.
Series [19] is described as follows: in vivo. As to conditions: male, Sprague-Dawley, rat, sc, 5 mg/kg.
In series [20] the test system is TTX-sensitive sodium currents in adult rat DRG neurons. The conditions noted are these: cited from earlier work.
In a further series the test system is TTX-resistant VGSCs. The conditions noted are these: cited from earlier work.
Series [21] relates to mouse saphenous nerve C-fibers.
The next series concerns the target Nav1.3 (Rattus norvegicus, UniProt P08104). The conditions noted are these: read-out: TTX IC50; cited from earlier work.
In another series the target is Nav1.4 (Rattus norvegicus, UniProt P15390). The conditions noted are these: read-out: TTX IC50; cited from earlier work.
The next series addresses Nav1.6 (Rattus norvegicus, UniProt O88420). As to conditions: read-out: TTX IC50; cited from earlier work.
Series [22] addresses Nav1.7 (Rattus norvegicus, UniProt O08562). As to conditions: read-out: TTX IC50; cited from earlier work.
The target of a further series is Nav1.8 (Rattus norvegicus, UniProt Q62968). The conditions noted are these: read-out: TTX IC50; cited from earlier work.
The conditions of series [23]: rat plasma, 37° C., incubation time 0 hr (normalization point).
Setting [24] is: 0.1, 0.3, and 1.0 mg/kg s.c., 1-hour pre-treatment.

“Also recorded” adds a separate entry of the source. Like-named read-outs stand apart in the source and are kept apart here.

T1 sequence (Q15858 whole entry): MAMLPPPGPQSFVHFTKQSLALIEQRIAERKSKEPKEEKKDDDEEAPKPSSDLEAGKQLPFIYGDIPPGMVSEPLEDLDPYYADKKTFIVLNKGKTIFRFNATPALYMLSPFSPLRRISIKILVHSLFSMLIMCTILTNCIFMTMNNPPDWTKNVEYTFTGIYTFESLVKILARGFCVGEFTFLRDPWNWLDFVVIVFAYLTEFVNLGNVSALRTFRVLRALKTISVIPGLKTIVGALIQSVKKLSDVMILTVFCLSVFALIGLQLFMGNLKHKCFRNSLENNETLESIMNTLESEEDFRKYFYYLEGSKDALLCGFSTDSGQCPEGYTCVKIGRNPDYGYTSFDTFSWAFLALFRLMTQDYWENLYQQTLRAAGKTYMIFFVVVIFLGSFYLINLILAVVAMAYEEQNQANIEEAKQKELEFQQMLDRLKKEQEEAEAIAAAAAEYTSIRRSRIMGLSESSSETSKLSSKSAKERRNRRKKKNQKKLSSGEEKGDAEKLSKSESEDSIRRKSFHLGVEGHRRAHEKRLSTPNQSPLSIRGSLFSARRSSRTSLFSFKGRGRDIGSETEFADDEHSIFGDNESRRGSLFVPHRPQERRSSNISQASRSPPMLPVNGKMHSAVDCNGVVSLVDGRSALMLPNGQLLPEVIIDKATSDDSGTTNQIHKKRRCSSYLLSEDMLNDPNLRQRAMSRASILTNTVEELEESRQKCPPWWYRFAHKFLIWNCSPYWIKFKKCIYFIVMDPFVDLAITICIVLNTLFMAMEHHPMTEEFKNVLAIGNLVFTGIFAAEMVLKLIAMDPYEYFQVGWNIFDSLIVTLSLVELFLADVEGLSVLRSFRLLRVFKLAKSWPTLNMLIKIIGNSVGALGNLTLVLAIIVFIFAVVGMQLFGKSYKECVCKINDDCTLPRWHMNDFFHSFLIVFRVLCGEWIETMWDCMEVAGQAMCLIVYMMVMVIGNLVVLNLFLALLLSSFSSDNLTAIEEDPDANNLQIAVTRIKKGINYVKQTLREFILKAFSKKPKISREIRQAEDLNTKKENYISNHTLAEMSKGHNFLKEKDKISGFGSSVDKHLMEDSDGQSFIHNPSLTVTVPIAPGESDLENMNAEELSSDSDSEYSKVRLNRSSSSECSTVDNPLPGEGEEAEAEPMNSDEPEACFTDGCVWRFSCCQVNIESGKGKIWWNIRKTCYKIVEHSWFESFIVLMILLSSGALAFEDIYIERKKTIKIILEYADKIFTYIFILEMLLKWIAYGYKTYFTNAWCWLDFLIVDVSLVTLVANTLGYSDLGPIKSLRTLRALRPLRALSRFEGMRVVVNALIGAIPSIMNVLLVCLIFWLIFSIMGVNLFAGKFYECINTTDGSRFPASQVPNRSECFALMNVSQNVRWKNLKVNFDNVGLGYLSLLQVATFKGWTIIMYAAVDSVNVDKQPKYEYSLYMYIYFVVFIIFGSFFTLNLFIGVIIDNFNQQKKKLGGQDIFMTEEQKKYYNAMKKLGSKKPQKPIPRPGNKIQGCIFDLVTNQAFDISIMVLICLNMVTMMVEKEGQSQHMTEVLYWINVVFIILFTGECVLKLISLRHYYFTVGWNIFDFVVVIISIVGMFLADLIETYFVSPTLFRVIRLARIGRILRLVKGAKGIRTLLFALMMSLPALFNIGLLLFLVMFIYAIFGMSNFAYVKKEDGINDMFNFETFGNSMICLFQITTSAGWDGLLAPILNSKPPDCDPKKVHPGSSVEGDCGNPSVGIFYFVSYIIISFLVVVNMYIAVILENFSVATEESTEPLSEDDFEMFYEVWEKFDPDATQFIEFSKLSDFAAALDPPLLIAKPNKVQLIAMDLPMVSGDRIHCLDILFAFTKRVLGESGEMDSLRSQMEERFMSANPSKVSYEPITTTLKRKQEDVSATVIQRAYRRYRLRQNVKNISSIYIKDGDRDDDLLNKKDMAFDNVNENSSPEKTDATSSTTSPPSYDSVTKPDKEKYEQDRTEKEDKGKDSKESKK
NaV1.7, sequence (Q15858 whole entry): as above

“YCQKWMWTCDSERKCCEGMVCRLWCKKKLW [ProTx-II]”: the “efficacy in mechanical hyperalgesia study” value with rats [1] is “not efficacious”. Moreover, in the series on rats [2], the tolerability result was “lethal”.

Take OD1 [OD 1]: the half-maximal effective concentration (EC50) on NaV1.7 [3] is 4.5 nM.

In the case of `CC[C@H](C)[C@H](NC(=O)[C@H](CCCCN)NC(=O)[C@H](CCCNC(=N)N)NC(=O)[C@@H]1CSSC[C@@H]2NC(=O)[C@H](C)NC(=O)[C@H](CCCNC(=N)N)NC(=O)[C@H](CCCCN)NC(=O)[C@H](CO)NC(=O)[C@H](CC(=O)O)NC(=O)[C@@H]3CSSC[C@H](NC(=O)[C@H](CCC(=O)O)NC(=O)[C@H](CC(C)C)NC(=O)CNC(=O)[C@H](CCC(=O)O)NC(=O)[C@H](CSSC[C@H](NC(=O)[C@@H](N)Cc4ccc(O)cc4)C(=O)N[C@@H](CCC(N)=O)C(=O)N[C@@H](CCCCN)C(=O)N[C@@H](Cc4c[nH]c5ccccc45)C(=O)N[C@@H](CCSC)C(=O)N[C@@H](Cc4c[nH]c5ccccc45)C(=O)N[C@@H]([C@@H](C)O)C(=O)N3)NC2=O)C(=O)N[C@@H](CCCCN)C(=O)N[C@@H](CC(C)C)C(=O)N[C@@H](Cc2c[nH]c3ccccc23)C(=O)N1)C(=O)N[C@@H](Cc1c[nH]c2ccccc12)C(N)=O` [compound 112], the Nav1.4/Nav1.7 on hNav1.7 [4] is recorded as 178. For the same compound, the IC50 on hNav1.7 [5] was 1.59 nM; on hNav1.6 (Table 15, read-out: PX hNav1.6 Tonic IC50), 720 nM; in series [8] it was 261 nM. Also, the “selectivity against hNav1.4 relative to hNav1.7” value on hNav1.4 is given as over 1000 fold. On hNav1.6 (PatchXpress), the “selectivity for Nav1.7 over Nav1.6” value is given as 454 fold. The Nav1.6/Nav1.7 on hNav1.6 (Table 15, ratio of PX tonic IC50 values) amounted to 454. Besides, the “block of hNav1.7 current” value at hNav1.7 [6] (100 nM) is “approximately 80%”. The “block of hNav1.7 current, in words” value at hNav1.7 [6] (100 nM) is given as “did not completely block Nav1.7 current; also recorded: only partial inhibition”. Also, the 1.x/1.7 is 1 at hNav1.7 [6] (partially inactivated, hNav1.7 / hNav1.7); 1213 in series [7]; 917 in [7] (partially inactivated, mTTX-S (fresh DRG) / hNav1.7); 1135 in series [8] (partially inactivated, rTTX-S / hNav1.7). Besides, the “loss in potency in mouse DRG neurons relative to the human clone of Nav1.7” value in series [7] (TTX-sensitive current) is listed as about 1000 fold. Further, the “% Peptide Remaining” value in series [9], in [10] and in series [11] was 100% in each case. Also, in series [12] (CD-1 mice, for 3 h), the “plasma concentration over the in vitro hNav1.7 IC50 (PX)” value is 26 fold. Further, the tolerability result in [12] (mice) is recorded as “tolerated”. Further, the terminal plasma exposure in the series on male CD-1 mice [13] (0.1 mg/kg s.c., 45 min post-formalin injection, mean±SEM) turned out to be 0.0278 ± 0.0105 µM; with male CD-1 mice [13] (0.3 mg/kg s.c., 45 min post-formalin injection), 0.121 ± 0.0411 µM; with male CD-1 mice [13] (1.0 mg/kg s.c., 45 min post-formalin injection), 0.412 ± 0.0858 µM; with male CD-1 mice [13] (5.0 mg/kg s.c., 45 min post formalin injection) it was 2.63 ± 0.777 µM; with male CD-1 mice [14] (2 h post peptide injection) it was 1.75 ± 0.536 µM; in the series on male Sprague-Dawley rats [16] (45 min post-formalin injection), 1.18 ± 0.156 µM. Also, the “pain response relative to the vehicle, first phase” value in the series on male CD-1 mice [13] (1 mg/kg s.c., 1-hour pre-treatment) was “may have slightly increased the pain response”. Also, in the series with male CD-1 mice [13] (5.0 mg/kg s.c.), the “plasma concentration over the IC50 for blocking TTX-S current in mouse DRG neurons (WCPC)” value is “about 10 fold”. Also, in the series with male CD-1 mice [14] (CFA thermal hyperalgesia, male CD-1 mice), the “thermal latency compared to vehicle (PBS)” value is on record as “no effect”. The “terminal exposure (peptide plasma concentration)” value in the series on male CD-1 mice [15] (0.1 mg/kg s.c.) was determined as 0.0248 ± 0.00668 µM; in the series with male CD-1 mice [15] (0.3 mg/kg s.c.), 0.121 ± 0.0296 µM; in the series with male CD-1 mice [15] (1.0 mg/kg s.c.) it was 0.419 ± 0.226 µM; in the series with male CD-1 mice [15] (5.0 mg/kg s.c.), 4.73 ± 0.584 µM; in the series on male Sprague-Dawley rats [17] it was 0.994 ± 0.184 µM. For the same compound, the “total basic movement component of locomotor activity” value in the series on male CD-1 mice [15] (setting [24]) is “No doses of peptide significantly decreased exploratory behavior”. Besides, the “total rearing component of locomotor activity” value in the series on male CD-1 mice [15] (setting [24]) is given as “No doses of peptide significantly decreased exploratory behavior”. Further, the “total basic movement, total fine movement, total rearing, or total time rearing” value in the series with male CD-1 mice [15] (0.1, 0.3, or 1.0 mg/kg s.c., 1-hour pre-treatment) is on record as “no effect”. Further, the “effect in the first or acute phase (0-5 min)” value in the series on male Sprague-Dawley rats [16] (1-hour pre-treatment, male Sprague-Dawley rats) was “no effect”. In addition, the level at time molar at 2 h in the series “in vivo [18]” (0.1 mg/kg) is 24.8 ± 6.68 nM; in “in vivo [18]” (0.3 mg/kg), 121 ± 29.6 nM; in “in vivo [18]” (1 mg/kg) it was 419 ± 226 nM; in the series “in vivo [19]”, 994 ± 184 nM.

As to Huwentoxin-IV [HWTX-IV], in series [20], the concentration for half-maximal inhibition (IC50) is 30 nM. The “effect on TTX-resistant VGSCs” value in the series on TTX-resistant VGSCs was “no effect”.

Consider `NC1=N[C@H](O)[C@H]2[C@H]3O[C@]4(O)O[C@@H]([C@@H](O)[C@@]2(N1)[C@@H]4O)[C@]3(O)CO` [TTX, tetrodotoxin], for which, in [21], the “action potential firing, in words” value is reported as “completely blocked action potential firing”. Besides, the half-maximal inhibitory concentration (IC50) is 2 to 15 nM at Nav1.3; 5 nM on Nav1.4; 1 nM at Nav1.6; 4 nM at Nav1.7 [22]; over 50000 nM at Nav1.8.

Take `CC[C@H](C)[C@H](NC(=O)[C@H](CO)NC(=O)[C@H](CCCCN)NC(=O)[C@H](CCCNC(=N)N)NC(=O)[C@@H]1CSSC[C@@H]2NC(=O)[C@H](C)NC(=O)[C@H](CCCNC(=N)N)NC(=O)[C@H](CCCCN)NC(=O)[C@H](CO)NC(=O)[C@H](CC(=O)O)NC(=O)[C@@H]3CSSC[C@H](NC(=O)[C@H](CCC(=O)O)NC(=O)[C@H](CC(C)C)NC(=O)CNC(=O)[C@H](CCC(=O)O)NC(=O)[C@H](CSSC[C@H](NC(=O)[C@@H](N)Cc4ccc(O)cc4)C(=O)N[C@@H](CCC(N)=O)C(=O)N[C@@H](CCCCN)C(=O)N[C@@H](Cc4c[nH]c5ccccc45)C(=O)N[C@@H](CCSC)C(=O)N[C@@H](Cc4c[nH]c5ccccc45)C(=O)N[C@@H]([C@@H](C)O)C(=O)N3)NC2=O)C(=O)N[C@@H](CCCCN)C(=O)N[C@@H](CC(C)C)C(=O)N[C@@H](Cc2c[nH]c3ccccc23)C(=O)N1)C(N)=O` [SEQ ID NO: 138, [Glu20,Ser28]JzTx-V(1-29)]: the “% Peptide Remaining” value in series [23] came to 100%.

(Values after patent publication US10344060B2 (priority 2013, dated 2019).)
